From patent publication US20190274290A1, “GENETICALLY MODIFIED MOUSE MODEL FOR HUMAN HEPATOCYTE XENOTRANSPLANTATION” (The Jackson Laboratory, priority 2016, published 2019) come the findings set out here.

The test system of experiment [1] is NSG-PiZ mice. Kind of experiment: Human hepatocyte engraftment in NSG-PiZ mice, serum human albumin ELISA. Format: in vivo, mouse. The note with it: for human hepatocyte engraftment (serum human albumin), comparison of groups: two doses of 50 mg/kg intraperitoneal MCT 14 and 7 days before engraftment, 50 mg/kg. On the procedure:
Human albumin levels were evaluated post-engraftment by using the human Albumin ELISA quantitation set (Bethyl Labs) as described by the manufacturer. For all assays, after incubation with the HRP-conjugated antibody, 3,3′,5,5′-tetramethylbenzidine (TMB) peroxidase substrate (KPL) was applied, and the reactions were stopped by adding 2 […] (Fisher Scientific) after 15-30 min. Plates were read at […] on a VersaMax microplate reader (Molecular Devices).
Animals were pre-treated with 50 mg/kg MCT (Oakwood Chemical) intraperitoneally 7 days or 14 and 7 days prior to engraftment or treated at the time of engraftment with 1 μg purified NA/LE hamster anti-mouse CD95 antibody (first apoptosis signal [FAS], BD PharMingen) intravenously.
To investigate additional methods for increased human hepatocyte engraftment, two approaches used in the liver xenograft field were tested: monocrotaline (MCT) and a mouse-specific anti-Fas antigen (CD95) antibody. MCT is a pyrrolizidine plant alkaloid with known endothelial toxicity in the lung, liver, and kidney. […] The anti-CD95 antibody recognizes mouse Fas and leads to cytolytic activity of cells expressing mouse Fas by inducing apoptosis of mouse hepatocytes and other cells.
(§1) All recipient mice were males, age 6-10 weeks, and they were anesthetized by isoflurane inhalation in a closed ventilation chamber. For intrasplenic injection, an incision was made on mouse left paralumbar fossa in order to expose the spleen. […] The exposed spleen was returned to the abdominal cavity and the incision was closed with an absorbable suture (4-0 Vicryl). Vet Bond was applied topically to seal the skin incision. For partial hepatectomy, median-line incision was made to expose the liver. The median lobe of the liver and the left lateral lobe were seemly tied off with 4-0 silk Blake braided suture and excised. Two-thirds of the total liver was removed by partial hepatectomy. The remaining liver was gently returned to the abdominal cavity. […]

The test system of experiment [2] is NSG-PiZ mice. Kind of experiment: Percentage of human hepatocytes in engrafted mouse liver (flow cytometry, anti-HLA-ABC / CD324). The class given is in vivo. The note with it: MCT-treated NSG-PiZ mice; flow cytometry with anti-HLA antibody. On the procedure:
After dissociation, cells were stained on ice for 30 minutes with anti-mouse/human CD324 (Biolegend) and anti-HLA-ABC (BD Biosciences) antibodies to determine human hepatocyte percentage. Cells were then washed twice with 1×PBS and resuspended in 1×PBS supplemented with 0.5% FHS and 2 mM EDTA. Cells were acquired using FACS-LSRII flow cytometer (BD Biosciences) and analyzed with FlowJo software (version 10.1; Tree Star Inc.).
as §1, with “cavity. Finally, the opposing sections of the abdominal wall were aligned at the ventral midline, and an absorbable suture (4-0 Vicryl) was applied to close the incision.” for “cavity.”

In the case of `C[C@H]1C(=O)O[C@@H]2CCN3CC=C(COC(=O)[C@](C)(O)[C@]1(C)O)[C@H]23` [MCT, monocrotaline], in the experiment with NSG-PiZ mice [1] (MCT 50 mg/kg before engraftment or 1 μg anti-mouse CD95 antibody at engraftment, versus intrasplenic engraftment alone), the “human hepatocyte engraftment (serum human albumin)” value was “significantly increased”. Further, the “human hepatocyte engraftment (serum human albumin), comparison of groups” value with NSG-PiZ mice [1] was “greatest engraftment”; in the experiment with NSG-PiZ mice [1] (listed as monocrotaline) it was “greatest serum human albumin concentrations”. The “hepatocytes of human origin” value in the experiment with NSG-PiZ mice [2] was “at least 25%”.
